This note sets out measurements from patent US20150051138A1, “INHIBITORS OF FURIN AND OTHER PRO-PROTEIN CONVERTASES” (Sanford-Burnham Medical Research Institute, priority 2012, published 2015).

What is called EC90 is the concentration needed for an effect of 90%. What is called IC50 is the midpoint of a concentration-inhibition curve.

T1 sequence (P09958 108-715 limits assumed): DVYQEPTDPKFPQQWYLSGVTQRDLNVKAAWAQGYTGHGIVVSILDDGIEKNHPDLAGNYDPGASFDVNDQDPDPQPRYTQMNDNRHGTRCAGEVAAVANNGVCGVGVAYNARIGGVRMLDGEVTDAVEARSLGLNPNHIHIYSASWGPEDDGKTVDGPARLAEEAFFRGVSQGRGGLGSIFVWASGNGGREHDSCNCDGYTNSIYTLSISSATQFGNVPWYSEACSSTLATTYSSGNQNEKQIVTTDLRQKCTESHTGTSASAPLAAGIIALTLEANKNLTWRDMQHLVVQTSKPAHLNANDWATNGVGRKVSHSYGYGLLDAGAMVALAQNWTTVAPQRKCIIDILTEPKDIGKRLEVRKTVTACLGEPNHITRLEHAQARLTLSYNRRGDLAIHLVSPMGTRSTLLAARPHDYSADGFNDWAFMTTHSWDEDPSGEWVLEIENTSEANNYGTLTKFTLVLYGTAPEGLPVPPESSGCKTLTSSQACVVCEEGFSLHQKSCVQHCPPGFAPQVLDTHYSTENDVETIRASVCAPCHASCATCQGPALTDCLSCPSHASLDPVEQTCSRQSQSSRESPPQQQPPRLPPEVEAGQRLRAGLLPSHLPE

The first experiment deals with Dengue. In words: Dengue viral replication assay, secondary CPE/virus yield reduction (VYR). It is filed as cell-based. Particulars: read-out: cellular activity against Dengue (EC90). The procedure:
Primary cytopathic effect (CPE) reduction assay. Four-concentration CPE inhibition assays are performed. Confluent or near-confluent cell culture monolayers in 96-well disposable microplates are prepared. Cells are maintained in MEM or DMEM supplemented with FBS as required for each cell line. For antiviral assays the same medium is used but with FBS reduced to 2% or less and supplemented with 50 μg/ml gentamicin. The test compound is prepared at four log 10 final concentrations, usually 0.1, 1.0, 10, and 100 μg/ml or μM. The virus control and cell control wells are on every microplate. In parallel, a known active drug is tested as a positive control drug using the same method as is applied for test compounds. The positive control is tested with each test run. The assay is set up by first removing growth media from the 96-well plates of cells. Then the test compound is applied in 0.1 ml volume to wells at 2× concentration. […] The dye content in each well is quantified using a 96-well spectrophotometer at 540 nm wavelength. […]
Secondary CPE/Virus yield reduction (VYR) assay. […] The incorporated dye content is quantified as described above. […] Compounds observed to be active above are further evaluated by VYR assay. […] Wells are scored for presence or absence of virus after distinct CPE (measured by neutral red uptake) is observed. […]
Regarding `CC(=O)N[C@@H](CCCNC(=N)N)C(=O)N[C@H](C(=O)N[C@@H](Cc1ccc(N=C(N)N)cc1)C(=O)NCc1ccc(C(=N)N)cc1)C(C)C` [Compound A], the EC90 turned out to be 14 µM.

The next experiment addresses T1, Furin (Homo sapiens, UniProt P09958).
T1 construct: Purification of Soluble Furin; inferred from purification by Ni2+-chelating chromatography and imidazole elution; made in house; host or cells: MDCK cells (furin-overexpressing), secreted into culture medium
In words: Furin enzymatic assay, IC50 determination with Pyr-RTKR-AMC substrate. It is filed as biochemical. Particulars: furin 50 nM, Pyr-RTKR-AMC 25 μM, 30 min preincubation; read-out: IC50 against Furin. The procedure:
Furin-overexpressing MDCK cells were grown using 15 cm plates (Falcon) in DMEM/High modified synthetic media (Thermo Scientific) supplemented with Gentamicin (10 μg/ml). Each two days the medium was collected. Cells were replenished with fresh medium. To remove cell debris, the collected samples were spun at 3000×g and the supernatant fraction was filtered through a 0.22 μm filter (Corning) and then 100-fold concentrated using a Pellicon XL Biomax 10 concentrator (Millipore). Furin was isolated from the concentrated medium samples using Ni^2+-chelating chromatography on a HiTrap Chelating HP 1.6×2.5 cm column (Amersham Biosciences) equilibrated with 20 mM Tris-HCl buffer, pH 8.0, containing 1M NaCl. To remove the impurities, the column was washed with 50 ml of the same buffer containing 25 mM imidazole. Furin was eluted using 500 mM imidazole. The purified fractions were pooled, concentrated using an Amicon Ultra 50K-cutoff membrane (Millipore), dialyzed against PBS and stored at −80° C. According to SDS-PAGE followed by Coomassie staining of the gel, Western blotting and enzyme activity assays the purity of the isolated furin samples was >95%. The typical yield of purified furin was 0.8-1 mg/liter of cell culture medium. Specific activity of purified furin was >120 units where one unit is the amount of furin that will cleave 1.0 pmol methyl-coumaryl-7-amide (AMC) from the Pyr-Arg-Thr-Lys-Arg-methyl-coumaryl-7-amide (Pyr-RTKR-AMC) substrate per min at ambient temperature, pH 7.5.
Furin activity was measured in triplicate in wells of a 96-well plate in 0.2 ml 50 mM HEPES, pH 7.5, containing 1 mM CaCl2, 0.005% Brij-35 and 20% glycerol. Pyr-RTKR-AMC (25 μM) was used as a substrate. The concentration of furin in the reactions was 50 nM. The steady-state rate of substrate hydrolysis was monitored continuously (λex=360 nm and λem=465 nm) at 37° C. using a Spectramax Gemini EM fluorescent spectrophotometer (Molecular Devices).
Furin (50 nM) was preincubated for 30 min at 20° C. with increasing concentrations of the individual compounds in 0.1 ml of 50 mM HEPES, pH 7.5, containing 1 mM CaCl2, 20% glycerol and 0.005% Brij 35. The Pyr-RTKR-AMC substrate ([…]) was added in 0.1 ml of the same buffer. Reaction velocity was monitored continuously at λex=360 nm and λem=465 nm on a Spectramax Gemini EM fluorescence spectrophotometer. All assays were performed in triplicate in wells of a 96-well plate. IC50 values were calculated by determining the concentrations of the compounds needed to inhibit 50% of the furin activity against Pyr-RTKR-AMC substrate. GraphPad Prism was used as fitting software.
As to `CC(=O)N[C@@H](CCCNC(=N)N)C(=O)N[C@H](C(=O)N[C@@H](Cc1ccc(N=C(N)N)cc1)C(=O)NCc1ccc(C(=N)N)cc1)C(C)C` [Compound A], the half-inhibitory concentration (IC50) was determined as 0.007 µM.
As for `CC(=O)N[C@@H](CCCNC(=N)N)C(=O)N[C@H](C(=O)N[C@@H](Cc1ccc(N=C(N)N)cc1)C(=O)NCc1ccc(C(=N)N)c(F)c1)C(C)C` [Compound B], the IC50 is 0.0037 µM.
On to `CC(=O)N[C@@H](CCCNC(=N)N)C(=O)N[C@H](C(=O)N[C@@H](Cc1ccc(N=C(N)N)cc1)C(=O)NCc1ccc(C(=N)N)cc1F)C(C)C` [Compound C], for which the IC50 worked out at 0.009 µM.
Consider `CC(=O)N[C@@H](CCCNC(=N)N)C(=O)N[C@H](C(=O)N[C@@H](Cc1ccc(N=C(N)N)cc1)C(=O)NCc1ccc(/C(N)=N/O)cc1)C(C)C` [Compound D], for which the concentration for half-maximal inhibition (IC50) came out at 1.2 µM.
Same read-out and setting: with `CC(C)[C@H](NS(=O)(=O)Cc1ccc(C(=N)N)cc1)C(=O)N[C@@H](CCCNC(=N)N)C(=O)NCc1ccc(C(=N)N)cc1` [Compound E] the figure was 0.3 µM.
